Legend:
[1] = system: carrageenan induced edema; assay: carrageenan induced edema of the rat hindpaw (plethysmometer); format: in vivo; details: for carrageenan induced edema, percentage increase in hindpaw volume: 10 mg/kg i.m.
Method: Male Sprague-Dawley rats (260-300 g for s.c. injected and 340-380 g for i.c.v. injected) were used (B&K Universal A B, Sollentuna, Sweden). The animals arrived at least one week before experiments and were housed three-four per cage (except animals provided with i.c.v. cannulas that were housed individually) with free access to food (R36, Ewos, Södertälje, Sweden) and water. The light schedule was a 12/12 h light/dark cycle, and ambient temperature was 20±2° C.
Oxytocin and the oxytocin antagonist (1-deamino-2-D-Tyr-(OEt)-4-Thr-8-Orn-oxytocin) (Ferring, Malmö, Sweden) were dissolved in physiological saline and injected in a volume of 1 ml/kg s.c. in the dorsal neck. Dexamethasone (Decadron®, Merck, Sharp & Dome, USA) was administered intramuscularly (i.m.). Oxytocin given i.c.v. was dissolved in a volume of 5 μl physiological saline and slowly injected over a period of 1 minute through the i.c.v. guide cannula via a 25 G stain-less-steel injection needle connected to a 10 μl Hamilton syringe via a polyethylene tube. Controls received saline in the same amounts.
The model of inflammation used, the carrageenan induced edema, is a commonly used model for studies of inflammation and for testing novel anti-inflammatory drugs (Winter C A, Risley E A, Nuss G W. Carrageenan-induced edema in hind paw of the rat as an assay for anti-inflammatory drugs. Proc Soc Exp Biol Med 1962; 111:544-7). To produce acute inflammation, carrageenan, 2 mg in 0.1 ml saline, was injected s.c. into the plantar region of the rat right hindpaw.
The rats were treated s.c. with oxytocin (1.0, 10, 100 or 1000 μg/kg (n=8 in each group) or saline (n=8+8) immediately before the carrageenan injection. The edema of the right hindpaw was measured (volume in ml) using a plethysmometer (Ugo Basile, type 7150, Florence, Italy) before treatment, half an hour after, one hour after, and then every hour up to 6 or 10 hours after treatment.
The results are presented as means±SD. Statistical analysis was performed by means of a 1-way ANOVA, followed by Fisher's test for post-hoc comparisons. In the analysis of myeloperoxidase accumulation, a Student's t-test was used. P-values of 0.05 or less were regarded as statistically significant.
The rats were treated s.c. with oxytocin (1000 μg/kg) and the oxytocin antagonist (1000 μg/kg) (the antagonist was given 30 minutes before oxytocin) (n=8), the oxytocin antagonist alone (1000 μg/kg) (n=8) or saline (n=8) immediately before the carrageenan injection. Measurements as in Example 1.
The rats were treated i.c.v. with oxytocin (1.0 μg/kg) (n=6) or saline (n=7) immediately before the carrageenan injection. Measurements as in Example 1. The animals were anaesthetised with sodiumpentobarbital (50 mg/kg) (Apoteksbolaget, Sweden) injected intraperitoneally (i.p.). The scull was uncovered, a hole was drilled in the right parietal bone and a guide cannula (21 G) was fixed stereotactically to the scull by means of acrylic dental cement. The coordinates were 1.00 mm posterior and 1.30 mm lateral to the bregma. […] The injection needles (25 G) reached 3.80 mm below the dura mater, with the tip of the needle in the right lateral ventricle. The animals were allowed one week of recovery after the operation. At the end of the experiment, the placement of the guide cannula was checked by injection of 2 μl of toluidine blue.
The rats were treated i.m. with dexamethasone (10 mg/kg) (n=6) or saline (n=6) immediately before the carrageenan injection. The edema of the right hindpaw was measured using the plethysmometer before treatment, and at 2, 4 and 6 hours after treatment.

[2] = system: ischaemic musculocutaneous skin flaps; details: antagonist 1 mg/kg s.c.; previously shown by the inventors; cited from earlier work

Molecule | abolition of the oxytocin (1000 μg/kg s.c.) induced effect on carrageenan induced edema ([1]; antagonist 1000 μg/kg s.c. 30 minutes before oxytocin) | effect on carrageenan induced edema ([1]; antagonist 1000 μg/kg s.c. administered alone) | antagonism of the oxytocin (1 mg/kg s.c.) effect on skin flap survival [2] | carrageenan induced edema, percentage increase in hindpaw volume ([1]; 2 hours, saline 48±10%, p<0.05) [%] | carrageenan induced edema, percentage increase in hindpaw volume ([1]; 4 hours, saline 78±12%, p<0.05) [%] | carrageenan induced edema, percentage increase in hindpaw volume ([1]; 6 hours, saline 105±11%, p<0.01) [%]
1-deamino-2-D-Tyr-(OEt)-4-Thr-8-Orn-oxytocin [oxytocin antagonist] | did not abolish | did not induce any effect | abolished | – | – | –
C[C@@H]1C[C@H]2[C@@H]3CCC4=CC(=O)C=C[C@]4(C)[C@@]3(F)[C@@H](O)C[C@]2(C)[C@@]1(O)C(=O)CO [Dexamethasone] | – | – | – | 35±9.3 | 54±14 | 71±15
